The values below come from patent publication US20150253323A1, “METHODS AND KITS FOR HIGH THROUGHPUT SCREENING FOR COMPOUNDS TARGETING DNA-BINDING AND RNA-BINDING PROTEINS” (The Florida International University Board of Trustees, priority 2014, published 2015).

One may read the IC50 as the concentration that inhibits the measured activity by half.

The test system of one data set is HMGA2-FL814 interaction. Kind of data set: PDI-ELISA for HMGA2 binding to DNA oligomer FL814. Conditions: for OD450 of the PDI-ELISA in the presence of the compound: 100 nM compound, 100 nM FL814, 1 μM HMGA2, 2×SSCT, OD450 without drug 1.44; for IC50: 25° C., read-out: IC50 for inhibition of binding of HMGA2 to DNA; for inhibition of HMGA2-FL814 interactions: compound at 100 nM in 2×SSCT, FIG. 12 / Table 1. Further details: species or system mammalian. For orientation: An ELISA detects its analyte on a solid surface through an enzyme-linked reagent.

For the next data set, the system named is 3T3-L1 cells. In words: Oil Red O staining of differentiated 3T3-L1 cells (adipogenesis). Conditions: 3T3-L1, Oil Red O absorbance 492 nm; read-out: inhibition IC50 of neutral lipids in the differentiated cells. The data set is classed as cell-based, mouse. The method, then: Mouse pre-adipocytes (3T3-L1 cells) were a gracious gift from Dr Jun Liu at Mayo Clinic. 3T3-L1 cells were maintained in DMEM supplemented with 10% FBS, 100 U/ml penicillin, 100 μg/ml streptomycin and 5 μg/ml plasmocin. The cells were grown under normal culture conditions of 5% CO2 and humidity. Cells were maintained for a minimum of three passages in linear growth prior to differentiation. To differentiate the 3T3-L1 pre-adipocytes into adipocytes, we used the protocol previously described by Zebisch et al. (Zebisch, K., et al. (2012)). Briefly, 3T3-L1 pre-adipocytes were sub-cultured in DMEM supplemented with 5% newborn calf serum, 100 U/ml penicillin, 100 μg/ml streptomycin and 5 μg/ml plasmocin (Basal Media 1—BM1). The cells were then plated at 6×10^5 cells per dish in 35-mm dishes, 3×10^5 cells per well in a 12-well plate, 1.5×10^5 cells in a 24-well plate or 3.0×10^4 cells per well in a 96-well plate. The cells were grown to confluency with BM1 replacement every other day. Following 48 h of confluency, 3T3-L1 cells were treated with Differentiation medium 1 (DM1), which is BM1 supplemented with […] iso-butyl-methylxanthine, 0.25 μM dexamethasone, 1 μg/ml insulin and 2 μg/ml rosiglitazone. After 48 h, the medium was replaced with differentiation medium 2 (DM2); this is BM1 supplemented with 1 μg/ml insulin. On the seventh day, the cells were placed in DMEM with FBS. The cells were cultured to the date indicated in the experiments below with media changes every other day. The presence of adipogenesis was confirmed by microscopic detection of adipose bodies in the cells. For our experiments, only cultures with >80% differentiation were used.
Following differentiation and drug treatment, Oil Red O staining was used to qualitatively and quantitatively assess the level of neutral lipids in the differentiated cells. For qualitative assessment by phase microscopy, cells were washed twice in PBS and then fixed with 10% formalin for 30 min at room temperature. Oil Red O was reconstituted at 300 mg per 100 ml of isopropanol. The Oil Red O solution was prepared for staining by adding 20 ml of deionized water to 30 ml of the Oil Red O stock solution and filtered. The cells were then incubated for 5 min in 60% isopropanol. The Oil Red O working solution was then added to cells for 5 min. The monolyers were then rinsed clean with deionized water. The cells were then visualized using phase microscopy on the EVOS XL Core microscope. For quantitative assessment of adipogenesis in 96-well formats, cells were lysed in dimethylsulfoxide (DMSO) following the water wash of Oil Red O stained cells. The DMSO released the intracellular Oil Red O into the solution. The absorbance (492 nm) was measured using the BioTek Synergy H1 plate reader.

Data set [1] has as its target T1, HMGA2 (high mobility group protein AT-hook 2) (mammalian, UniProt P52926 P52926:2-109).
T1 sequence: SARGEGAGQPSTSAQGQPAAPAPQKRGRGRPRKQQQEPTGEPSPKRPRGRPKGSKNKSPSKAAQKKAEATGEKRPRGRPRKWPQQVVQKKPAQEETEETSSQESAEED
In words: ELONA; duplex without hairpin loop; 100 nM DNA, 1 uM HMGA2; binding enhanced by TMPyP4. Conditions: tags: purified as in Cui et al. 2007.

“Also recorded” adds a separate entry of the source. Counter-ions that a name gives are not always drawn. Starred links: 1 amine or outer side, 2 acyl side, 3 side chain; linkers in the order of their positions; H or OH if unused. Positions of bridges follow the written chain, without caps; N, C: chain ends. Non-standard residues stand in square brackets, D forms with d. Residues, ends and D or L forms follow the SMILES beside them. Chains are numbered I, II in the order given. Actinocin(9to1) = Cc1c2oc3c(C)ccc(C(=O)[*:1])c3nc-2c(C(=O)[*:2])c(N)c1=O; NMeV = CN[C@H](C(=O)O)C(C)C; Sar = CNCC(=O)O

As to `Cl.NCc1ccc2ccc3cccc4ccc1c2c34` [1-Pyrenemethylamine hydrochloride, 1-pyrenemethylamine hydrochloride], in the data set on HMGA2-FL814 interaction, the “OD450 of the PDI-ELISA in the presence of the compound” value (“OD450 of the PDI-ELISA” for short) came to 1.36.

For `Cc1c2oc3c(C)ccc(C(=O)N[C@@H]4C(=O)N[C@H](C(C)C)C(=O)N5CCC[C@H]5C(=O)N(C)CC(=O)N(C)[C@@H](C(C)C)C(=O)O[C@@H]4C)c3nc-2c(C(=O)N[C@@H]2C(=O)N[C@H](C(C)C)C(=O)N3CCC[C@H]3C(=O)N(C)CC(=O)N(C)[C@@H](C(C)C)C(=O)O[C@@H]2C)c(N)c1=O` [Actinomycin D, actinomycin D] (I: T[dV]P[Sar][NMeV] / II: T[dV]P[Sar][NMeV]; ester I:1-I:C, II:1-II:C; linker I:N-II:N via Actinocin(9to1)), in the data set on HMGA2-FL814 interaction, the “OD450 of the PDI-ELISA” value amounted to 1.03.

For the molecule `COc1ccc2cc3[n+](cc2c1OC)CCc1cc2c(cc1-3)OCO2` [Berberine chloride, berberine chloride], in the data set on HMGA2-FL814 interaction, the “OD450 of the PDI-ELISA” value is given as 0.91.

With `CC(=O)NCC(=O)O.CC(=O)NCC(=O)O.N=C(N)c1ccc(N=NNc2ccc(C(=N)N)cc2)cc1` [Berenil, berenil], in the data set on HMGA2-FL814 interaction, the “OD450 of the PDI-ELISA” value amounted to 0.52. As for `C=C1C(=O)OC(CCCCCCCC)C1C(=O)O` (centres unmarked) [C-75], in the data set on 3T3-L1 cells, the IC50 turned out to be 3700 ± 800 nM.

Regarding `COC1C(O)CC(OC2CC(Oc3cc4cc5c(c(O)c4c(O)c3C)C(=O)[C@@H](OC3CC(OC4CC(OC6CC(C)(O)C(OC(C)=O)C(C)O6)C(O)C(C)O4)C(O)C(C)O3)[C@H]([C@H](OC)C(=O)[C@@H](O)[C@@H](C)O)C5)OC(C)C2OC(C)=O)OC1C` (some centres unmarked) [Chromomycin, chromomycin], in the data set on HMGA2-FL814 interaction, the “OD450 of the PDI-ELISA” value is given as 1.3. Same read-out and setting: as for `COc1cc2cc3c4cc(OC)c(OC)cc4cc[n+]3c(C)c2cc1OC.[Cl-]` [Coralyne chloride, coralyne chloride], the figure is 1.38.

In the case of `N=C(N)c1ccc(-c2cc3ccc(C(=N)N)cc3[nH]2)cc1` [DAPI], in the data set on HMGA2-FL814 interaction, the “OD450 of the PDI-ELISA” value amounted to 0.161, the IC50 came out at 60.6 ± 8.5 nM and the “inhibition of HMGA2-FL814 interactions” value is “potently inhibit; also recorded: completely inhibit”. With `CCN1/C(=C/C=C/C=C/c2oc3ccccc3[n+]2CC)Oc2ccccc21.[I-]` [DODC], the “OD450 of the PDI-ELISA” value with HMGA2-FL814 interaction turned out to be 1.3. For the molecule `Cc1c2ccncc2c(C)c2c1[nH]c1ccccc12` [Ellipticine], in the data set with HMGA2-FL814 interaction, the “OD450 of the PDI-ELISA” value was 1.39.

Consider `CN1CCN(c2ccc3[nH]c(-c4ccc5[nH]c(-c6ccc(O)cc6)nc5c4)nc3c2)CC1` [Hoechst 33258], for which, in the data set on HMGA2-FL814 interaction, the “OD450 of the PDI-ELISA” value worked out at 0.166, the IC50 stood at 73 ± 9.6 nM and the “inhibition of HMGA2-FL814 interactions” value was “potently inhibit; also recorded: completely inhibit”.

Turning to `CN(C)c1ccc(C(=C2C=CC(=[N+](C)C)C=C2)c2ccc([N+](C)(C)C)cc2)cc1.[Cl-].[Cl-]` [Methyl Green, methyl green], the “OD450 of the PDI-ELISA” value in the data set on HMGA2-FL814 interaction was found to be 1.06. With `CN(C)c1ccc2nc3ccc(=[N+](C)C)cc-3sc2c1` [Methylene Blue, methylene blue], the “OD450 of the PDI-ELISA” value with HMGA2-FL814 interaction is given as 0.93. For `O=C1c2ccc3c4ccc5c6c(ccc(c7ccc(c2c37)C(=O)N1CCN1CCCCC1)c64)C(=O)N(CCN1CCCCC1)C5=O` [PIPER, N,N′-bis[2-(1-piperidino)ethyl]-3,4,9,10-perylenetetracarboxylic diimide], the “OD450 of the PDI-ELISA” value in the data set on HMGA2-FL814 interaction came to 1.27.

In the case of `N=C(N)c1ccc(OCCCCCOc2ccc(C(=N)N)cc2)cc1` [Pentamidine, pentamidine isethionate salt], the “OD450 of the PDI-ELISA” value with HMGA2-FL814 interaction is listed as 0.65. Same read-out and setting: as for `Nc1ccc2cc3ccc(N)cc3nc2c1` [Proflavine hemisulfate, proflavine hemisulfate], the figure is 1.49. Take `Nc1ccc2cc3ccc(N)cc3nc2c1` [Proflavine hydrochloride, proflavine hydrochloride]: the “OD450 of the PDI-ELISA” value with HMGA2-FL814 interaction (hydrochloride) is recorded as 1.5. Turning to `CCN(CC)CCCC(C)Nc1c2ccc(Cl)cc2nc2ccc(OC)cc12` (centres unmarked) [Quinacrine dihydrochloride, quinacrine dihydrochloride], the “OD450 of the PDI-ELISA” value in the data set on HMGA2-FL814 interaction came out at 1.46. As to `C[n+]1ccccc1-c1c2nc(c(-c3cccc[n+]3C)c3ccc([nH]3)c(-c3cccc[n+]3C)c3nc(c(-c4cccc[n+]4C)c4ccc1[nH]4)C=C3)C=C2.[Cl-].[Cl-].[Cl-].[Cl-]` [TMPyP2], the “OD450 of the PDI-ELISA” value with HMGA2-FL814 interaction was 1.7. In addition, in the data set with HMGA2-FL814 interaction (titration, 100 nM FL814, 1 μM HMGA2, FIG. 14), the “enhancement of HMGA2 binding to FL814 (OD450)” value is given as “not able to stimulate”. For the molecule `CN1C(=Cc2cc[n+](C)c3ccccc23)Sc2ccccc21` [Thiazole orange, thiazole orange], the “OD450 of the PDI-ELISA” value in the data set with HMGA2-FL814 interaction is reported as 1.83. Regarding `COc1cccc2c1C(=O)c1c(O)c3c(c(O)c1C2=O)C[C@@](O)(C(C)=O)C[C@@H]3O[C@H]1C[C@H](NCc2ccc(CN[C@H]3C[C@H](O[C@H]4C[C@](O)(C(C)=O)Cc5c(O)c6c(c(O)c54)C(=O)c4c(OC)cccc4C6=O)O[C@@H](C)[C@H]3O)cc2)[C@H](O)[C@H](C)O1` [WP631], in the data set on HMGA2-FL814 interaction, the “OD450 of the PDI-ELISA” value was 0.21, the IC50 was found to be 41 ± 4.5 nM and the “inhibition of HMGA2-FL814 interactions” value is on record as “potently inhibit; also recorded: completely inhibit”. Take `COc1cccc2c1C(=O)c1c(O)c3c(c(O)c1C2=O)C[C@@](O)(C(C)=O)C[C@@H]3O[C@H]1C[C@H](NCc2cccc(CN[C@@H]3C[C@@H](O[C@H]4C[C@](O)(C(C)=O)Cc5c(O)c6c(c(O)c54)C(=O)c4c(OC)cccc4C6=O)O[C@H](C)[C@@H]3O)c2)[C@H](O)[C@H](C)O1` [WP762]: in the data set on HMGA2-FL814 interaction, the “OD450 of the PDI-ELISA” value was found to be 0.56, the IC50 is 115 ± 19.7 nM and the “inhibition of HMGA2-FL814 interactions” value is given as “potently inhibit”. Turning to `O=c1cc(-c2ccccc2)oc2c1ccc1ccccc12` [a-Naphthoflavone, α-naphthoflavone], the “OD450 of the PDI-ELISA” value in the data set with HMGA2-FL814 interaction is listed as 1.91. `O=c1cc(-c2ccccc2)oc2ccc3ccccc3c12` [b-Naphthoflavone, β-naphthoflavone]: the “OD450 of the PDI-ELISA” value with HMGA2-FL814 interaction was 1.56. As to N-methyl mesoporphyrin [NMM 580], the “OD450 of the PDI-ELISA” value in the data set with HMGA2-FL814 interaction came to 1.62.

B1: FL842/FL843 duplex (dsDNA)
DNA 1: CCCCCCATATTCGCGATTATTGCGC
DNA 2: GCGCAATAATCGCGAATATGGGGGG
B1: in data set [1], the binding result is “binds”.
